Data: publication doi:10.1101/2021.06.10.447950v1 (biorxiv, 2021)

Legend:
Assay in all cases: fluorogenic peptidase assay, initial rate
Format in all cases: biochemical
[1] = target: T1, cathepsin K (Homo sapiens, UniProt P43235)
T1 sequence (P43235 115-329): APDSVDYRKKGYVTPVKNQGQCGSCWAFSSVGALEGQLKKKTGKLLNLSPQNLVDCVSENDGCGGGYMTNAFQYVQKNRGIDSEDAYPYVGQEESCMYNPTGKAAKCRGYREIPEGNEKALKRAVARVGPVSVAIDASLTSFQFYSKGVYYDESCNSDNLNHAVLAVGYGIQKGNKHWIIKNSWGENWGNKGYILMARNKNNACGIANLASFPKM

[2] = target: cathepsin B (Homo sapiens, UniProt P07858)
[3] = target: cathepsin L (Homo sapiens, UniProt P07711)
Sequence of cathepsin L (P07711 114-288): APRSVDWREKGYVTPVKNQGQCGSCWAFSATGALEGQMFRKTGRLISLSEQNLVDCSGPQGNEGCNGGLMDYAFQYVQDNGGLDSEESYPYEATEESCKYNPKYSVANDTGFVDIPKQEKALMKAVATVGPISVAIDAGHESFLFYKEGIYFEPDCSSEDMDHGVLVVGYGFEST
Sequence of cathepsin L (P07711 292-333): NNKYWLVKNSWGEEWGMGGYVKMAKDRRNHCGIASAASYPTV

O=C[C@H](C[C@@H]1CCNC1=O)NC(=O)[C@H](CC1CCCCC1)NC(=O)c1cc2ccccc2[nH]1 [11a]
IC50 [1]: 1.4 ± 0.2 nM | IC50 [2]: 4.9 ± 0.4 nM | IC50 [3]: 0.14 ± 0.04 nM

CC(C)C[C@H](NC(=O)[C@@H](NC(=O)OCc1ccccc1)[C@@H](C)OC(C)(C)C)C(=O)N[C@H](C=O)C[C@@H]1CCNC1=O [MPI6]
IC50 [1]: 1.07 ± 0.21 nM | IC50 [2]: 380 ± 21 nM | IC50 [3]: 0.45 ± 0.08 nM

CC(C)C[C@H](NC(=O)[C@@H](NC(=O)/C=C/c1ccc(Cl)cc1F)C(C)C)C(=O)N[C@H](C=O)C[C@@H]1CCNC1=O [MPI9]
IC50 [1]: 1.5 ± 0.2 nM | IC50 [2]: 147 ± 10 nM | IC50 [3]: 0.56 ± 0.06 nM

O=C[C@H](C[C@@H]1CCNC1=O)NC(=O)[C@H](Cc1ccccc1)NC(=O)/C=C/c1ccc(Cl)cc1F [MPI2]
IC50 [1]: 0.78 ± 0.06 nM | IC50 [2]: 4.1 ± 0.4 nM | IC50 [3]: 0.19 ± 0.03 nM

CC(C)[C@H](NC(=O)OCc1ccccc1)C(=O)N[C@@H](Cc1ccccc1)C(=O)N[C@H](C=O)C[C@@H]1CCNC1=O [MPI4]
IC50 [1]: 49 ± 16 nM | IC50 [2]: 46 ± 3 nM | IC50 [3]: 0.33 ± 0.04 nM

CC(C)[C@H](NC(=O)OCc1ccccc1)C(=O)N[C@@H](CC1CCCCC1)C(=O)N[C@H](C=O)C[C@@H]1CCNC1=O [MPI5]
IC50 [1]: 134 ± 18 nM | IC50 [2]: 80 ± 6 nM | IC50 [3]: 2.3 ± 1.9 nM

O=C[C@H](C[C@@H]1CCNC1=O)NC(=O)[C@H](Cc1ccccc1)NC(=O)OCc1ccccc1 [MPI1]
IC50 [1]: 0.88 ± 0.12 nM | IC50 [2]: 25 ± 2 nM | IC50 [3]: 0.079 ± 0.029 nM

C[C@@H](OC(C)(C)C)[C@H](NC(=O)OCc1ccccc1)C(=O)N[C@@H](CC1CCCCC1)C(=O)N[C@H](C=O)C[C@@H]1CCNC1=O [MPI8]
IC50 [2]: 230 ± 20 nM

CC(C)C[C@H](NC(=O)[C@@H](NC(=O)OCc1ccccc1)C(C)C)C(=O)N[C@H](C=O)C[C@@H]1CCNC1=O [MPI3]
IC50 [1]: 1.18 ± 0.18 nM | IC50 [2]: 112 ± 10 nM | IC50 [3]: 0.3 ± 0.07 nM

C[C@@H](OC(C)(C)C)[C@H](NC(=O)OCc1ccccc1)C(=O)N[C@@H](Cc1ccccc1)C(=O)N[C@H](C=O)C[C@@H]1CCNC1=O [MPI7]
IC50 [1]: 51 ± 6 nM | IC50 [2]: 64 ± 7 nM | IC50 [3]: 0.61 ± 0.15 nM
